# Reference: BindingDB's records for doi:10.1016/j.bmcl.2009.03.086 (The Scripps Research Institute, 2009)
# pIC50: −log10 of the molar value.
# How the values were obtained:
# [1] = molecular target: Mitogen-activated protein kinase 8 (Homo sapiens, UniProt P45983); experiment: Homogeneous Time-resolved Fluorescence Assay
# Procedure: (§1) Biochemical IC50s for JNK were determined using HTRF. In each assay the phosphor-Thr71-ATF-2 product was detected using a Europium-cryptate labeled anti-phospho-Thr71-ATF-2 antibody. Streptavidin-allophycocyanin-XL was used as the acceptor. A 10-point dose-response curve for each compound was generated in duplicate and data was fit to a four parameter logistic.
# [2] = molecular target: Isoform Alpha-1 of Mitogen-activated protein kinase 10 (Alpha-1) 9-402] (Homo sapiens, UniProt P53779); experiment: Homogeneous Time-resolved Fluorescence Assay; settings: pH 7; 22 °C
# Sequence of Isoform Alpha-1 of Mitogen-activated protein kinase 10 (Alpha-1) 9-402] (P53779 39-402): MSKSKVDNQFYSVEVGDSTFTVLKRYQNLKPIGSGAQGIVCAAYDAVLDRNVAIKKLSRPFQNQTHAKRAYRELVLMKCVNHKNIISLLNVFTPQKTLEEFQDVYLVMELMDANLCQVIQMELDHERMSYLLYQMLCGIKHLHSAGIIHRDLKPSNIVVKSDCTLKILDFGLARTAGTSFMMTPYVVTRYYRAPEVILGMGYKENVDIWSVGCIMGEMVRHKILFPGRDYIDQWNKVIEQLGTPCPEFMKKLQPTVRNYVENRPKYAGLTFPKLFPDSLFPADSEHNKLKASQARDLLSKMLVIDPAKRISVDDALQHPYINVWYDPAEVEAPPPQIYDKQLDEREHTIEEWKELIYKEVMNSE
# Procedure: as §1
# Sequence of Mitogen-activated protein kinase 8 (P45983 whole entry, canonical isoform): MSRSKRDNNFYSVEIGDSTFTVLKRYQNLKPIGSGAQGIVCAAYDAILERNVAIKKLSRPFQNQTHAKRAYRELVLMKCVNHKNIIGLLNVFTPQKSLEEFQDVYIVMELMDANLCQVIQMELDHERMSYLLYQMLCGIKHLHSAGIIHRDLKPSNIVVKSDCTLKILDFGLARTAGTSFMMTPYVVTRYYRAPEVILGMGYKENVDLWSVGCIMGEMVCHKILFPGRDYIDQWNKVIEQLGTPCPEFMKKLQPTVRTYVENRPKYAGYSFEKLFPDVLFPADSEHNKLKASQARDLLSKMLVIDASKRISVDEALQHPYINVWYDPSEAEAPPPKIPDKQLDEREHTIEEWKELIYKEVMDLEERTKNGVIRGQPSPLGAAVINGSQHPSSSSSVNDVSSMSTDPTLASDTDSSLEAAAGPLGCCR
structure (smiles),measurement,setting,value
"C=CCN1CCN(c2c(Cl)cccc2NC(=O)c2ccc(Br)o2)CC1 [piperazine amide, 6a]",pIC50,[1],6.42
same,pIC50,[2],5.90
